# Where two headings read alike, the source gives them in different places.
# What was measured:
# S. xylosus = assay: In vitro activity (MIC) against S. xylosus strains
# S. haemolyticus = assay: In vitro activity (MIC) against S. haemolyticus strains; conditions: Staphylococcus haemolyticus
# [1] = test system: Staphylococcus spp. strains; assay: In vitro activity (MIC) against Staphylococcus spp. strains; conditions: Staphylococcus
# [2] = test system: Enterobacteriaceae spp. strains; assay: In vitro activity (MIC) against Enterobacteriaceae spp. strains
compound,measurement,setting,value
COC1/C=C/O[C@@]2(C)Oc3c(C)c(O)c4c(O)c(c5c(c4c3C2=O)NC2C=C(C)C=CN52)NC(=O)/C(C)=C\C=C\C(C)C(O)C(C)C(O)C(C)C(O)C1C (stereo partly drawn) [25-desacetyl rifaximin],MIC,S. xylosus; Staphylococcus xylosus,2 µg/mL
same,MIC,S. xylosus; strain S. xylosus 346,2 µg/mL
same,MIC,S. haemolyticus; strain S. haemolyticus 243,0.5 µg/mL
same,MIC,S. haemolyticus; strain S. haemolyticus 276,1 µg/mL
same,MIC,S. haemolyticus; strain S. haemolyticus 955,1 µg/mL
same,MIC,S. haemolyticus; strain S. haemolyticus 982,0.5 µg/mL
same,MIC50,[1],2 µg/mL
same,MIC90,[1],16 µg/mL
same,MIC,"[1]; read-out: Mode (MIC), Staphylococcus spp. strains",2 µg/mL
same,MIC,[1]; strain S. spp. 1102,1 µg/mL
same,MIC,[1]; strain S. spp. 1187,2 µg/mL
same,MIC,[1]; strain S. spp. 1195,0.12 µg/mL
same,MIC,[1]; strain S. spp. 1256,4 µg/mL
same,MIC,[1]; strain S. spp. 1312,4 µg/mL
same,MIC,[1]; strain S. spp. 1689,4 µg/mL
same,MIC,[1]; strain S. spp. 1745,0.25 µg/mL
same,MIC,[2],128 µg/mL
same,MIC50,[2],128 µg/mL
same,MIC90,[2],256 µg/mL
same,MIC,"[2]; Citrobacter freundii, C. freundii 57",128 µg/mL
same,MIC,"[2]; Citrobacter freundii, C. freundii 58",128 µg/mL
same,MIC,"[2]; Citrobacter freundii, C. freundii 65",128 µg/mL
same,MIC,"[2]; Citrobacter freundii, C. freundii 68",256 µg/mL
same,MIC,"[2]; Citrobacter freundii, C. freundii 69",128 µg/mL
same,MIC,"[2]; Citrobacter freundii, C. freundii 1070",128 µg/mL
same,MIC,"[2]; Citrobacter freundii, C. freundii 1073",256 µg/mL
same,MIC,"[2]; Citrobacter freundii, C. freundii 1075",128 µg/mL
same,MIC,"[2]; Enterobacter cloacae, E. cloacae 1",128 µg/mL
same,MIC,"[2]; Enterobacter cloacae, E. cloacae 3",128 µg/mL
same,MIC,"[2]; Enterobacter cloacae, E. cloacae 8",256 µg/mL
same,MIC,"[2]; Enterobacter cloacae, E. cloacae 12",128 µg/mL
same,MIC,"[2]; Enterobacter cloacae, E. cloacae 13",128 µg/mL
same,MIC,"[2]; Enterobacter cloacae, E. cloacae 14",128 µg/mL
same,MIC,"[2]; Enterobacter cloacae, E. cloacae 16",128 µg/mL
same,MIC,"[2]; Enterobacter cloacae, E. cloacae 20",128 µg/mL
same,MIC,"[2]; Enterobacter cloacae, E. cloacae 321",128 µg/mL
same,MIC,"[2]; Enterobacter cloacae, E. cloacae 348",256 µg/mL
same,MIC,"[2]; Enterobacter cloacae, E. cloacae 349",128 µg/mL
same,MIC,"[2]; Enterobacter cloacae, E. cloacae 358",128 µg/mL
same,MIC,"[2]; Enterobacter cloacae, E. cloacae 367",128 µg/mL
same,MIC,"[2]; Enterobacter cloacae, E. cloacae 369",256 µg/mL
same,Range (MIC),[2]; Enterobacteriaceae spp. strains,128 to 256 µg/mL
same,MIC,"[2]; Escherichia coli, ATCC E. Coli 25922",128 µg/mL
same,MIC,"[2]; Escherichia coli, E. coli 6",128 µg/mL
same,MIC,"[2]; Escherichia coli, E. coli 15",128 µg/mL
same,MIC,"[2]; Escherichia coli, E. coli 34",128 µg/mL
same,MIC,"[2]; Escherichia coli, E. coli 37",128 µg/mL
same,MIC,"[2]; Escherichia coli, E. coli 41",128 µg/mL
same,MIC,"[2]; Escherichia coli, E. coli 43",128 µg/mL
same,MIC,"[2]; Escherichia coli, E. coli 44",256 µg/mL
same,MIC,"[2]; Escherichia coli, E. coli 46",128 µg/mL
same,MIC,"[2]; Escherichia coli, E. coli 47",128 µg/mL
same,MIC,"[2]; Escherichia coli, E. coli 48",256 µg/mL
same,MIC,"[2]; Escherichia coli, E. coli 49",128 µg/mL
same,MIC,"[2]; Escherichia coli, E. coli 56",128 µg/mL
same,MIC,"[2]; Escherichia coli, E. coli 62",128 µg/mL
same,MIC,"[2]; Escherichia coli, E. coli 71",128 µg/mL
same,MIC,"[2]; Escherichia coli, E. coli 90",128 µg/mL
same,MIC,"[2]; Escherichia coli, E. coli 92",128 µg/mL
same,MIC,"[2]; Escherichia coli, E. coli 93",256 µg/mL
same,MIC,"[2]; Escherichia coli, E. coli 95",128 µg/mL
same,MIC,"[2]; Escherichia coli, E. coli 96",128 µg/mL
same,MIC,"[2]; Escherichia coli, E. coli 97",128 µg/mL
same,MIC,"[2]; Escherichia coli, E. coli 100",128 µg/mL
same,MIC,"[2]; Escherichia coli, E. coli 102",128 µg/mL
same,MIC,"[2]; Escherichia coli, E. coli 103",128 µg/mL
same,MIC,"[2]; Escherichia coli, E. coli 109",128 µg/mL
same,MIC,"[2]; Escherichia coli, E. coli 110",256 µg/mL
same,MIC,"[2]; Escherichia coli, E. coli 112",128 µg/mL
same,MIC,"[2]; Escherichia coli, E. coli 113",128 µg/mL
same,MIC,"[2]; Escherichia coli, E. coli 117",256 µg/mL
same,MIC,"[2]; Escherichia coli, E. coli 118",128 µg/mL
same,MIC,"[2]; Escherichia coli, E. coli 120",128 µg/mL
same,MIC,"[2]; Escherichia coli, E. coli 140",256 µg/mL
same,MIC,"[2]; Escherichia coli, E. coli 171",128 µg/mL

# Reference: US9364467B2 (Salix Pharmaceuticals, Ltd, priority 2012, dated 2016)
